Measured values taken from patent US8962558B2, “Methods for reducing GnRH-positive tumor cell proliferation using the GnRH antagonist IN3” (priority 1997, dated 2015).
Square brackets hold non-standard residues; d marks the D form. Peptide text beside a SMILES is read from it. * marks the point of attachment. Tyr(3-I) = N[C@@H](Cc1ccc(O)c(I)c1)C(=O)O; pGlu = O=C1CC[C@@H](C(=O)O)N1; azaGly = NNC(=O)O; tBu = CC(C)(C)*

Key:
[1] = system: human glioblastoma cell lines U-87MG or U-373MG, Kaposi sarcoma cell lines KSY-1 or KS-SLK, malignant melanoma cell line MV3 or BLM, medulloblastoma cell line …; assay: Proliferation assay on cell cultures (Example 3); assay type: cell-based; details: cell lines of Example 3 treated with the substance
Description: A human cell line, such as the well known human glioblastoma cell lines U-87MG or U-373MG (Pinski et al., supra), or a human cell line such as the well known Kaposi sarcoma cell lines KSY-1 or KS-SLK (Parkash et al., 1996, New England Journal of Medicine, 335, 17, 1261-1269), or a human cell line such as the well known human malignant melanoma cell line MV3 or BLM (Goldbrunner, R. H., et al., 1996, Anticancer Research 16 (6B), 3679-87), or a human medulloblastoma cell line such as the well known cell line Daoy or D283 MED (Stockhammer et al., 1995, J. Neurosurgery, 83, 672-681), or human meningeoma cell cultures (Boyle-Wash, E., et al., 1995, Journal of Endocrinology, 145, 155-161), are cultured as previously described for the above-mentioned cell lines and then treated with a concentration of the GnRH agonist Triptorelin®, GnRH antagonist SB-75 (Cetrorelix®) or GnRH antagonist Ramorelix®. […]
In another embodiment, the above-mentioned cell lines are treated as described by Emons, G., et al., 1993, supra, and Irmer, G., 1995, supra, with a concentration of the GnRH peptide antagonist Ac-D-Nal(2)-D-4-ClPhe-D-Pal-Ser-1-MePal-D-IsopropylLys-Leu-IsopropylLys-Pro-D-AlaNH2 (also known as Ant 135-25; the Mepal portion is known as 1-Methyl-3-[3′-pyridyl]-alanine), Teverelix (also known as Antarelix®), Cetrorelix (also known as Cetrotide®), Abarelix (also known as Plenaxis®), D-63153 (also known as Ozarelix®), acyline, azaline B, antide (also known as Iturelix®), Degarelix (FE200486), Ganirelix, Nal-Glu, Orntide (also known as Ornirelix®), Elagolix, or with antagonist peptidomimetic ((2S)-2-[5-[2-(2-azabicyclo[2,2,2]oct-2-yl)-1,1-dimethyl-2-oxoethyl]-2-(3,5-dimethylphenyl)-1H-indol-3-yl]-N-(2-pyridin-4-ylethyl-)propan-1-amine (also known as “IN3”).
In another embodiment, the cell lines used above were each additionally treated with a second GnRH antagonist, namely one of the GnRH antagonists Cetrorelix®, Ant 135-25, IN3, degarelix, Antarelix®, Antide®, and Ramorelix® or alternatively with one of the GnRH antagonists that have been disclosed in U.S. Pat. Nos. 6,939,88, 6,200,957, 5,296,468, 4,851,385, 7,361,633, 7,288,517, WO/2009/106597 or PCT/EP2009/052326, U.S. Pat. Nos. 5,480,969, 5,198,533, or UK Patent GB 2 246782 B, wherein these additional treatment procedures were carried out in a manner similar to those reported in Emons et al., supra, using SB 75 (Cetrorelix®). […]

[2] = system: small cell lung carcinoma cell lines NCI-H1688, NCI-H1417, NCI-H1672, NCI-H1836, DMS-79, DM-553, DMS-114, SW-1271, NCI-H2227, NCI-HI1963, SHP-77 and H-69 AR; assay: Proliferation assay on small cell lung carcinoma cell lines (Example 3); assay type: cell-based, human; details: small cell lung carcinoma cell lines treated with the substance
Description: In another embodiment, the small cell lung carcinoma cell lines NCI-H1688, NCI-H1417, NCI-H1672, NCI-H1836, DMS-79, DM-553, DMS-114, SW-1271, NCI-H2227, NCI-HI1963 and SHP-77 in addition to the multidrug-resistant small cell lung carcinoma cell line H-69 AR, are cultured as described above and then treated as described by Emons, G., et al., 1993, supra, and Irmer, G., 1995, supra, with various concentrations of the GnRH agonists (D-Lys6)-GnRH, Lutrelin, Histrelin, Nafarelin, Azagly-Nafarelin, Deslorelin, Cystorelin, Decapeptyl, Gonadorelin, GnRH, D-Lys(6)-GnRH II, Lamprey GnRH II, (D-Lys6)-Lamprey GnRH, (D-Lys6)-Lamprey GnRH II and Lamprey GnRH III.
In another embodiment, the small cell lung carcinoma cell lines NCI-H1688, NCI-H1417, NCI-H1672, NCI-H1836, DMS-79, DM-553, DMS-114, SW-1271, NCI-H2227, NCI-HI1963 and SHP-77 in addition to the multidrug-resistant small cell lung carcinoma cell line H-69 AR, are cultured as described above for the above-mentioned cell lines, and then treated as described by Emons, G., et al., 1993, supra, and Irmer, G., 1995, supra, with a concentration of the GnRH antagonist Cetrorelix (also known as Cetrotide®) or with a GnRH peptide antagonist Ac-D-Nal(2)-D-4-ClPhe-D-Pal-Ser-1-MePal-D-IsopropylLys-Leu-IsopropylLys-Pro-D-AlaNH2 wherein Mepal is 1-Methyl-3-[3′-pyridyl]-alanine or Ant 135-25 (also known as Ac-D-Nal(2)-D-4-Cl-Phe-D-Pal-Ser-1-MePal-D-IsopropylLys-Leu-IsopropylLys-Pro-D-AlaNH2), Teverelix (also known as Antarelix®), Cetrorelix (also known as Cetrotide®), Abarelix (also known as Plenaxis®), D-63153 (also known as Ozarelix®), acyline, azaline B, antide (also known as Iturelix®), Degarelix (FE200486), Ganirelix, Nal-Glu, Orntide (also known as Ornirelix®) or with antagonist peptidomimetic ((2S)-2-[5-[2-(2-azabicyclo[2,2,2]oct-2-yl)-1,1-dimethyl-2-oxoethyl]-2-(3,5-dimethylphenyl)-1H-indol-3-yl]-N-(2-pyridin-4-ylethyl-)propan-1-amine (also known as “IN3”).

[3] = system: BLM human melanoma cells; assay: Proliferation of BLM human melanoma cells (Example 20); assay type: cell-based; details: 5×10^−5M
Excerpt: The effects of the GnRH agonist (D-Lys6)-GnRH, Gossypol, the combination of D-Lys6-GnRH and racemic Gossypol, and a conjugate of (D-Lys6)-GnRH, and racemic Gossypol alone on the proliferation of BLM human melanoma cells are depicted in FIG. 20 (A), (B) and (C), respectively. Results are expressed as mean cell number per plate±SE. *, p<0.05 vs. control (C).

[4] = system: malignant gliomas U-87MG and U-373MG; assay: In vivo study with tumor-implanted nude mice (Example 4); details: daily dosages
Description: An effect of the treatment of tumor-implanted nude mice (Pinski et al., supra) each with one of the GnRH agonists Buserelin, Triptorelin, Goserelin, and Leuprorelin and each with one of the GnRH antagonists Cetrorelix® (SB-75), Antarelix®, Antide®, and Ramorelix® on the growth of malignant gliomas U-87MG and U-373MG was carried out using daily dosages and controls in nude mice using analysis techniques described for the determination of the efficacy of similar peptides in Pinski et al., supra.

[5] = system: ovarian carcinoma cell lines; details: 10^−5 M, day 6; cited from earlier work
[6] = biological target: T1, LHRH receptors in BLM melanoma cells (Homo sapiens, UniProt P30968); assay: 125I-LHRH-A binding to BLM cell membranes
T1 construct: endogenous in cells; host or cells: BLM human melanoma cells (membranes)
T1 sequence (P30968 1-328): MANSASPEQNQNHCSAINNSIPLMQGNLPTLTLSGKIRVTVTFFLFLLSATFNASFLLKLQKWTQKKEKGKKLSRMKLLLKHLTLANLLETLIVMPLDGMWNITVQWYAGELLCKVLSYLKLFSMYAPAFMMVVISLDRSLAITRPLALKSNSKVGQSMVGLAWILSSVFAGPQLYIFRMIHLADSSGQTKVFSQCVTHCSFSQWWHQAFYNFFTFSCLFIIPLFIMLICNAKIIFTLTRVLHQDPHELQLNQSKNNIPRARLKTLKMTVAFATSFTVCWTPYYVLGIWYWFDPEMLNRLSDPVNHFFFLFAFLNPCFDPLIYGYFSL
Description: (§1) GnRH receptors in melanoma cells have been analyzed also in terms of binding parameters.
(§2) Binding characteristics were evaluated from displacement curves as described in Materials and Methods.

[7] = biological target: T2, LHRH receptors in Me15392 melanoma cells (Homo sapiens, UniProt P30968); assay: 125I-LHRH-A binding to Me15392 cell membranes
T2 construct: endogenous in cells; host or cells: Me15392 human melanoma cells (membranes)
T2 sequence (P30968 1-328): T1 sequence (P30968 1-328)
Description: as §1, §2

[8] = biological target: T3, LHRH receptors in rat pituitaries (Rattus norvegicus, UniProt P30969); assay: 125I-LHRH-A binding to rat pituitaries (control)
T3 construct: from tissue; host or cells: rat pituitary
T3 sequence (P30969 1-327): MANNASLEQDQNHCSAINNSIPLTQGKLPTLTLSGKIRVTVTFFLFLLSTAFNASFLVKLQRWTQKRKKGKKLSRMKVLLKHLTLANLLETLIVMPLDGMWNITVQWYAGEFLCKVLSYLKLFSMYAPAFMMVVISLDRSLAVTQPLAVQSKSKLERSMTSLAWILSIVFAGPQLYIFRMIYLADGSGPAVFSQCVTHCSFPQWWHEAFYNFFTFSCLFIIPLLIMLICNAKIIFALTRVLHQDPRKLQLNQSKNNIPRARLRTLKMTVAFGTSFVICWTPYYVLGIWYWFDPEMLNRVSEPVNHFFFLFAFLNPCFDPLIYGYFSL
Description: as §1, §2

| Molecule | anti-proliferative effects in tumor cells [1] | anti-proliferative effects in tumor cells [2] | inhibition of cellular proliferation versus controls [3] | growth of malignant gliomas [4] | inhibition of proliferation [5] | ^125I-LHRH-A binding Capacity [6] | ^125I-LHRH-A binding Capacity [7] | ^125I-LHRH-A binding Capacity [8] |
| --- | --- | --- | --- | --- | --- | --- | --- | --- |
| (D-Lys6)-GnRH | Significant anti-proliferative effects | Significant anti-proliferative effects | 39% | – | – | – | – | – |
| CC(C)C[C@H](NC(=O)[C@@H](Cc1c[nH]c2ccccc12)NC(=O)[C@H](Cc1ccc(O)cc1)NC(=O)[C@H](CO)NC(=O)[C@H](Cc1c[nH]c2ccccc12)NC(=O)[C@H](Cc1c[nH]cn1)NC(=O)[C@@H]1CCC(=O)N1)C(=O)N[C@@H](CCCNC(=N)N)C(=O)N1CCC[C@H]1C(=O)NCC(N)=O [Triptorelin®] | Significant anti-proliferative effects | – | – | Significant growth-inhibiting effects | 40% | – | – | – |
| CC(C)C[C@H](NC(=O)[C@@H](COC(C)(C)C)NC(=O)[C@H](Cc1ccc(O)c(I)c1)NC(=O)[C@H](CO)NC(=O)[C@H](Cc1c[nH]c2ccccc12)NC(=O)[C@H](Cc1c[nH]cn1)NC(=O)[C@@H]1CCC(=O)N1)C(=O)N[C@@H](CCCNC(=N)N)C(=O)N1CCC[C@H]1C(=O)NNC(N)=O [^125I-LHRH-A] ([pGlu]HWS[Tyr(3-I)][dS](tBu)LRP[azaGly]-NH2; C-terminus assumed) | – | – | – | – | – | 150-200 fmoles/mg protein | 200-250 fmoles/mg protein | 70-100 fmoles/mg protein |
